# According to US9303092B2, “Methamphetamine-like hapten compounds, linkers, carriers and compositions and uses thereof” (The Board of Trustees of the University of Arkansas, priority 2000, dated 2016):
# Columns and labels:
# mAb6H4 = experiment: RIA binding specificity, relative potency to METH; design: species or system mouse; settings: RIA IC50 value for METH/RIA IC50 value for test ligand
# mAb6H8 = experiment: RIA binding specificity, relative potency to METH; design: species or system mouse; settings: RIA IC50 value for METH/RIA IC50 value for test ligand
# mAb4G9 = experiment: RIA binding specificity, relative potency to METH; design: species or system mouse; settings: RIA IC50 value for METH/RIA IC50 value for test ligand
# [1] = test system: discriminative stimulus effects of (+)-methamphetamine; experiment: Drug discrimination in rats; settings: i.p., group III
# [2] = test system: discriminative stimulus effects of (+)-methamphetamine; experiment: Drug discrimination in pigeons; settings: i.m.
# Procedure: The pigeons used in these experiments had performed in experiments previously.
# Training continued for 40 min or until the pigeons had received 20 reinforcers, whichever occurred first. […] In the determination of cumulative dose-response curves, a dose of drug was administered and the pigeon was placed in the chamber for 10 min, after which the chamber and key lights were illuminated. The pigeon was tested for 5 min or until one food reinforcer had been delivered, whichever occurred first. Food was delivered following the completion of 20 responses on one of the two keys. After food had been delivered, or the session had timed out, the bird was removed from the chamber, a higher dose was administered, and the process was repeated.
# Because only a few birds were still available for these experiments, the data for days 1-2 and days 7-8 were combined.
# All doses are expressed as the salts.
# [3] = test system: (+)methamphetamine induced effects; experiment: Pretreatment with anti-(+)methamphetamine monoclonal antibody before 1 mg/kg (+)methamphetamine challenge; format: in vivo, rat; settings: 1.0 mg/kg i.v.
# Procedure: Rats (n=7/group) were administered a dose of […] of anti-methamphetamine monoclonal antibody on day 1. The following day they were administered i.v. (+)methamphetamine (1.0 mg/kg) 3 days apart on two occasions to stabilize locomotor responses and to minimize sensitization.
# [4] = from Riviere et al. (1999); cited from earlier work
# [5] = test system: (+)-methamphetamine-induced locomotor activity; experiment: (+)-Methamphetamine locomotor activity studies, rat overdose model, mAb at t=30 min; format: in vivo
# Procedure: The parameters of distance traveled (in centimeters or meters), number of rearing events, and time spent moving (in seconds) were individually quantified for each animal. […] Briefly, animals were placed in polyethylene chambers that contained a bedding of dark-gray clay. Animal behavior was videotaped, and the video images were digitized and quantitated in 4-min intervals by EthoVision software (Noldus Information Technology Inc., Sterling, Va.). The duration of drug action was calculated for each parameter starting at 30 min (time of treatment) and until the locomotor activity returned to baseline.
# Rats were habituated to the behavioral monitoring chambers before the start of the experimental protocol. This was accomplished by placing the rats in the chambers for a minimum of 3 h per day for 4-6 consecutive days. […] The rats in each group were dosed every three days for a total of 10 days.
# On day 1, all groups received saline followed at 30 min by mAb buffer to obtain baseline (non-drug-induced) behavior.
# All control buffer and mAb solutions were administered via the jugular venous catheter in an 8-ml volume at 2 ml/min. Three days after the end of the experimental protocol for the 1-mg/kg group, locomotor activity from a second saline administration was monitored to determine whether any changes had occurred in baseline activity.
# All other aspects of the protocol were as just described.
# [6] = test system: methamphetamine-induced locomotor activity; experiment: Anti-METH Fab treatment of methamphetamine-induced behavioral effects; format: in vivo, rat; settings: 1 mg/kg iv methamphetamine, treatment at 30 min
# Procedure: Rats (n=4 per group) were administered saline (left most bar) or 1.0 mg/kg d-methamphetamine as an intravenous bolus dose. When drug effects were maximizing at 30 minutes, they were treated with saline (control), an anti-phencyclidine monoclonal antibody Fab fragment (anti-PCP), or an anti-d-methamphetamine-specific monoclonal antibody Fab fragment (anti-methamphetamine).
# [7] = Preliminary studies of high i.v. (+)-methamphetamine doses
# [8] = (+)-Methamphetamine and (+)-amphetamine pharmacokinetic studies in serum and brain with and without mAb6H4; settings: for AUC(0-t): male, Sprague-Dawley, rat, in vivo, Serum
# Procedure: This allowed the administration of approximately 100 μCi per rat by injection of 1 μl/g of rat body weight.
# Male Sprague-Dawley rats were randomly placed into two groups. […] Ethyl ether was used for anesthesia so that hemodynamic stability could be maintained before animal sacrifice. Immediately after blood collection, the rats were decapitated and the brain was removed. The brain was rinsed with saline, weighed, and placed in liquid nitrogen within 3 min of decapitation. Hematocrit values were obtained for each animal. The blood was allowed to clot and serum was obtained after centrifugation. The serum and brain tissues were stored at −80° C. until analyzed.
# The second group was the mAb-treatment group. All aspects of the experiment were same as those described for the control group, with the following exception. […] The mAb was given via the jugular venous catheter in an 8-ml volume at 2 ml/min. Because the experimental protocol was the same up until the mAb was administered, the time points before 30 min were not repeated in this group.
# For serum analysis, 300 μl of guanidine HCl was added to 200-μl of each serum sample to denature the proteins. The samples were vortexed and placed on a gentle shaker for 30 min. […] After sample application, the cartridges were centrifuged at 230 g for 1 min, washed with 1 ml of water, and then centrifuged. […] Then, 1 ml of methanol:acetic acid (98:2) was added, followed by centrifugation.
# A 200-μl aliquot was then added to 300 μl of 8 M guanidine HCl. The mixture was vortexed and gently shaked for 30 min. […] The mixture was vortexed, placed on ice for 5 min, and centrifuged at 12,500 g for 5 min.
# Supernatants from the brain samples were applied to conditioned extraction cartridges and then centrifuged at 600 g for 4 min. The brain precipitates left over from the 12,500 g centrifugation were resuspended in 500 μl of water and centrifuged at 12,500 g for 3 min. The supernatants were then added to their respective extraction columns and centrifuged at 600 g for 4 min. This was followed by a 1-ml water wash, with another 4 min centrifugation at 600 g. Finally, the cartridges were placed in siliconized test tubes for sample collection. The elution process was as described for the serum samples.
# After elution, the samples were taken to dryness over 3 h in a vacuum centrifuge (Savant Instruments, Inc., Farmingdale, N.Y.) with no heat or cryopumping.
# The data were fit to both two- and three-compartment i.v. bolus models, with y (predicted concentration), 1/y, or 1/y^2 weighting. The best-fit line was chosen by visual inspection and analysis of the residuals. […] All pharmacokinetic analysis was performed with the use of WinNonlin V3.0 (Pharsight Corporation, Mountain View, Calif.).
# [9] = after intravenous (+)-methamphetamine; cited from earlier work
molecule,measurement,setting,value
"CC(N)C(O)c1ccccc1 (single isomer, unassigned; (+)) [(+)phenylpropanolamine]","Relative Potency to METH, mAb6H4",mAb6H4,<0.001
same,"Relative Potency to METH, mAb6H8",mAb6H8,<0.001
same,"Relative Potency to METH, mAb4G9",mAb4G9,<0.001
(+)pseudoephedrine,"Relative Potency to METH, mAb6H4",mAb6H4,<0.001
same,"Relative Potency to METH, mAb6H8",mAb6H8,0.018
same,"Relative Potency to METH, mAb4G9",mAb4G9,0.004
NC[C@H](O)c1ccc(O)c(O)c1 [norepinepherine],"Relative Potency to METH, mAb6H4",mAb6H4,<0.001
same,"Relative Potency to METH, mAb6H8",mAb6H8,<0.001
same,"Relative Potency to METH, mAb4G9",mAb4G9,<0.001
CNC[C@H](O)c1ccc(O)c(O)c1 [epinephrine],"Relative Potency to METH, mAb6H4",mAb6H4,<0.001
same,"Relative Potency to METH, mAb6H8",mAb6H8,<0.001
same,"Relative Potency to METH, mAb4G9",mAb4G9,<0.001
(+)-methamphetamine [(+)METH],potency of (+)-methamphetamine and (+)-amphetamine as discriminative stimuli compared,[1],nearly equipotent
same,potency of (+)-methamphetamine and (+)-amphetamine compared,[2],approximately equipotent
same,duration of action of (+)methamphetamine without the monoclonal antibody,[3],about 160 min
same,t1/2dist of (+)-methamphetamine in serum,[4],9 min
same,duration of (+)-methamphetamine-induced locomotor effects following buffer,[5]; 0.3-mg/kg dose,approximately 1 h
same,duration of (+)-methamphetamine-induced locomotor effects following buffer,[5]; 1.0-mg/kg dose,~2 h
same,duration of drug action following buffer,[5]; 3.0-mg/kg group,4 h
same,"duration of action / activity, distance traveled parameter",[6],116 ± 17 min
same,doses sometimes lethal,[7],10 mg/kg
same,i.v. doses that led to self-mutilation,[7],≥ 5.2 mg/kg
NCCc1c[nH]c2ccc(O)cc12 [serotonin],"Relative Potency to METH, mAb6H4",mAb6H4,<0.001
same,"Relative Potency to METH, mAb6H8",mAb6H8,<0.001
same,"Relative Potency to METH, mAb4G9",mAb4G9,<0.001
CN[C@H](C)Cc1ccccc1 [(−)METH],"Relative Potency to METH, mAb6H4",mAb6H4,0.030
same,"Relative Potency to METH, mAb6H8",mAb6H8,0.011
same,"Relative Potency to METH, mAb4G9",mAb4G9,0.102
(+)norpseudoephedrine,"Relative Potency to METH, mAb6H4",mAb6H4,<0.001
same,"Relative Potency to METH, mAb6H8",mAb6H8,<0.001
same,"Relative Potency to METH, mAb4G9",mAb4G9,<0.001
"CC(N)Cc1ccccc1 (single isomer, unassigned; (+)) [(+)AMP, (+)-amphetamine]",potency of (+)-methamphetamine and (+)-amphetamine as discriminative stimuli compared,[1],nearly equipotent
same,AUC38 min-[…] Treated,"[8]; Brain, 1-mol equivalent dose of mAb at 30 min",284 ng·h/g
same,AUC38 min-[…] Control,"[8]; Brain, without treatment",530 ng·h/g
same,AUC(0-t),"[8]; AUC38 min-[…] Control, without treatment",55 ng·h/mL
same,AUC(0-t),"[8]; AUC38 min-[…] Treated, 1-mol equivalent dose of mAb at 30 min",73 ng·h/mL
same,potency of (+)-methamphetamine and (+)-amphetamine compared,[2],approximately equipotent
same,time to peak plasma levels of (+)-amphetamine,[9],≤ 20 min
CNC(C)Cc1ccc(O)cc1 (centres unmarked) [4-OH-METH],"Relative Potency to METH, mAb6H4",mAb6H4,0.588
same,"Relative Potency to METH, mAb6H8",mAb6H8,0.294
same,"Relative Potency to METH, mAb4G9",mAb4G9,0.106
NCCc1ccccc1 [β-phenylethylamine],"Relative Potency to METH, mAb6H4",mAb6H4,<0.001
same,"Relative Potency to METH, mAb6H8",mAb6H8,<0.001
same,"Relative Potency to METH, mAb4G9",mAb4G9,0.001
CNC[C@H](O)c1cccc(O)c1 [/-phenylphrine],"Relative Potency to METH, mAb6H4",mAb6H4,0.001
same,"Relative Potency to METH, mAb6H8",mAb6H8,<0.001
same,"Relative Potency to METH, mAb4G9",mAb4G9,<0.001
"CNC(C)Cc1ccc2c(c1)OCO2 (single isomer, unassigned; (+)) [(+)MDMA, (+)-3,4-methylenedioxymethamphetamine]","Relative Potency to METH, mAb6H4",mAb6H4,1.25
same,"Relative Potency to METH, mAb6H8",mAb6H8,3.40
same,"Relative Potency to METH, mAb4G9",mAb4G9,0.29
NCCc1ccc(O)cc1 [tyramine],"Relative Potency to METH, mAb6H4",mAb6H4,<0.001
same,"Relative Potency to METH, mAb6H8",mAb6H8,<0.001
same,"Relative Potency to METH, mAb4G9",mAb4G9,<0.001
"CNC(C)Cc1ccc2c(c1)OCO2 (single isomer, unassigned; (-)) [(−)MDMA]","Relative Potency to METH, mAb6H4",mAb6H4,0.007
same,"Relative Potency to METH, mAb6H8",mAb6H8,0.018
same,"Relative Potency to METH, mAb4G9",mAb4G9,0.011
"CC(N)Cc1ccc2c(c1)OCO2 (single isomer, unassigned; (+)) [(+)MDA]","Relative Potency to METH, mAb6H4",mAb6H4,0.001
same,"Relative Potency to METH, mAb6H8",mAb6H8,0.024
same,"Relative Potency to METH, mAb4G9",mAb4G9,0.090
NCCc1ccc(O)c(O)c1 [dopamine],"Relative Potency to METH, mAb6H4",mAb6H4,<0.001
same,"Relative Potency to METH, mAb6H8",mAb6H8,<0.001
same,"Relative Potency to METH, mAb4G9",mAb4G9,<0.001
CN[C@H](C)[C@@H](O)c1ccccc1 [(+)ephedrine],"Relative Potency to METH, mAb6H4",mAb6H4,<0.001
same,"Relative Potency to METH, mAb6H8",mAb6H8,<0.001
same,"Relative Potency to METH, mAb4G9",mAb4G9,<0.001
"CC(N)Cc1ccc2c(c1)OCO2 (single isomer, unassigned; (-)) [(−)MDA]","Relative Potency to METH, mAb6H4",mAb6H4,<0.001
same,"Relative Potency to METH, mAb6H8",mAb6H8,<0.001
same,"Relative Potency to METH, mAb4G9",mAb4G9,0.002
